Measured values taken from patent US7754220B2, “Methods of inhibiting secretion of follicle-stimulating hormone and testosterone” (Takeda Pharmaceutical Company Limited, priority 2003, dated 2010).

Test: Level of human metastin in plasma by EIA after sustained administration
Format: in vivo
Conditions: rat, sc, male Copenhagen rats, continuous s.c. administration by osmotic pumps at 6.0 nmol/hr, 7 days after implantation
Method: Male Copenhagen rats of 8 weeks old after birth (Charles River Laboratories, US) were anesthetized by giving an intraperitoneal injection of sodium pentobarbital (Nembutal, Dainippon Pharmaceutical Co., Ltd.) in a dose of 50 mg/kg body weight. Then, two ALZET osmotic pumps (Model 2001, volume: 200 μL, rate: 1.0 μL/hr) filled with a 3 mM human metastin solution in distilled water (metastin group) or with distilled water (distilled water group) were implanted subcutaneously in rats at the back (5 rats in each group), whereby human metastin was continuously administered at a rate of 6.0 nmol/hr in the metastin group. For the intraperitoneal administration of sodium pentobarbital, a 1 mL tuberculin syringe and a 26-gauge needle (both by Terumo Co., Ltd.) were used. Following weighing the body weight 7 days after the implantation of the pumps, the animal was sacrificed by decapitation to collect blood. At the same time, the weight of testis was weighed. […] The levels of FSH (follicle-stimulating hormone), LH (luteinizing hormone) and testosterone contained in plasma were determined by radioimmunoassay (Rat Follicle Stimulating Hormone (rFSH) [^125I] Biotrack Assay System with Magnetic Separation, Rat Luteinizing Hormone (rLH) [^125I] Biotrack Assay System with Magnetic Separation, all by Amersham Biosciences, and DPC.Total Testosterone by Diagnostic Products Corporation).

level at time molar at 168 h: ~3.2 nM
Structure (SMILES): CC[C@H](C)[C@H](NC(=O)[C@H](CCC(N)=O)NC(=O)[C@H](CCCNC(=N)N)NC(=O)[C@H](CO)NC(=O)[C@H](Cc1c[nH]cn1)NC(=O)[C@@H]1CCCN1C(=O)[C@H](C)NC(=O)[C@H](CO)NC(=O)[C@H](CC(C)C)NC(=O)CNC(=O)[C@@H]1CCCN1C(=O)[C@H](CCC(N)=O)NC(=O)[C@H](CCC(N)=O)NC(=O)[C@H](CCCNC(=N)N)NC(=O)[C@H](CO)NC(=O)CNC(=O)[C@H](CO)NC(=O)[C@H](CO)NC(=O)[C@H](CCC(=O)O)NC(=O)[C@@H]1CCCN1C(=O)[C@@H]1CCCN1C(=O)[C@@H]1CCCN1C(=O)[C@H](CO)NC(=O)[C@H](CC(C)C)NC(=O)[C@H](CO)NC(=O)[C@@H](NC(=O)CN)[C@@H](C)O)C(=O)N1CCC[C@H]1C(=O)N[C@@H](C)C(=O)N1CCC[C@H]1C(=O)N[C@@H](CCC(N)=O)C(=O)NCC(=O)N[C@@H](C)C(=O)N[C@H](C(=O)N[C@@H](CC(C)C)C(=O)N[C@H](C(=O)N[C@@H](CCC(N)=O)C(=O)N[C@@H](CCCNC(=N)N)C(=O)N[C@@H](CCC(=O)O)C(=O)N[C@@H](CCCCN)C(=O)N[C@@H](CC(=O)O)C(=O)N[C@@H](CC(C)C)C(=O)N1CCC[C@H]1C(=O)N[C@@H](CC(N)=O)C(=O)N[C@@H](Cc1ccc(O)cc1)C(=O)N[C@@H](CC(N)=O)C(=O)N[C@@H](Cc1c[nH]c2ccccc12)C(=O)N[C@@H](CC(N)=O)C(=O)N[C@@H](CO)C(=O)N[C@@H](Cc1ccccc1)C(=O)NCC(=O)N[C@@H](CC(C)C)C(=O)N[C@@H](CCCNC(=N)N)C(=O)N[C@@H](Cc1ccccc1)C(N)=O)C(C)C)C(C)C [Human metastin]
